pIC50: −log10 of the molar value.
Legend:
[1] = biological target: T1, E. multilocularis DNA damage-inducible 1 protein (EmuDdi1) (Echinococcus multilocularis, UniProt A0A068Y9Y4); assay: fluorogenic aspartyl protease assay; assay type: biochemical
T1 sequence (A0A068Y9Y4 1-390): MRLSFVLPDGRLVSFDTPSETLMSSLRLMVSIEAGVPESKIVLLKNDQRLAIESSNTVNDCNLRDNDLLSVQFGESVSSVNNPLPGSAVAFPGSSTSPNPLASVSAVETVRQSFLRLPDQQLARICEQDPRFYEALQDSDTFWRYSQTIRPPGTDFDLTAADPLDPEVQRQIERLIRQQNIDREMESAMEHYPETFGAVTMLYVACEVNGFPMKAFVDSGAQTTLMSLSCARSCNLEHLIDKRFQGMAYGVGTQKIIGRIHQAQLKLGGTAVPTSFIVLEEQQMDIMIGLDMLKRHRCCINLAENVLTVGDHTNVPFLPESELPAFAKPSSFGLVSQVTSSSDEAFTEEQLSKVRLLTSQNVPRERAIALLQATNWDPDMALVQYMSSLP

[2] = biological target: T1, E. multilocularis DNA damage-inducible 1 protein (EmuDdi1); assay: fluorogenic aspartyl protease assay, single concentration; assay type: biochemical; conditions: read-out: % inhibition at 40 μM

SMILES | pIC50 [1] | inhibition at 40 µM [2] [%]
Cc1c(O)cccc1C(=O)N[C@@H](CSc1ccccc1)[C@H](O)CN1C[C@H]2CCCC[C@H]2C[C@H]1C(=O)NC(C)(C)C [NFV, nelfinavir] | 4.34 | –
CC(C)(C)NC(=O)[C@@H]1C[C@@H]2CCCC[C@@H]2CN1C[C@@H](O)[C@H](Cc1ccccc1)NC(=O)[C@H](CC(N)=O)NC(=O)c1ccc2ccccc2n1 [SQV, saquinavir] | – | ~40
